In ChEMBL document CHEMBL5505975, “Design, synthesis and biological evaluation of CDC20 inhibitors for treatment of triple-negative breast cancer” (Eur J Med Chem, 2024):
Activity calls are given as the source filed them. The calls are words filed in the database; no cut-off is given here.

Legend:
MDA-MB-231 [1] = assay: Induction of apoptosis in human MDA-MB-231 cells assessed as necrotic cells at 2.5 uM incubated for 48 hrs by Annexin V-FITC/PI staining based flow cytometric analysis (reference value: 1.63%); assay type: functional
[2] = Toxicity in female BALB/C mouse implanted with mouse 4T1 cells assessed as effect on body weight at 20 to 50 mg/kg, po administered every two days for 21 days; assay type: organism-based; conditions: in vivo, 504 h, dose 20-50 mg/kg, time 21 day
MDA-MB-231 [3] = assay: Induction of apoptosis in human MDA-MB-231 cells assessed as necrotic cells at 10 uM incubated for 48 hrs by Annexin V-FITC/PI staining based flow cytometric analysis (reference value: 1.63%); assay type: functional
MDA-MB-231 [4] = assay: Induction of apoptosis in human MDA-MB-231 cells assessed as late apoptotic cells at 5 uM incubated for 48 hrs by Annexin V-FITC/PI staining based flow cytometric analysis (reference value: 1.06%); assay type: functional
MDA-MB-231 [5] = assay: Induction of autophagy in human MDA-MB-231 cells assessed as autophagic lysosomes at 10 uM incubated for 48 hrs by transmission electron microscopic analysis; assay type: functional, cell-based
[6] = Toxicity in female BALB/C mouse implanted with mouse 4T1 cells assessed as kidney damage at 20 to 50 mg/kg, po administered every two days for 21 days by H and E staining based analysis; assay type: organism-based; conditions: in vivo, 504 h, dose 20-50 mg/kg, time 21 day
[7] = Toxicity in female BALB/C mouse implanted with mouse 4T1 cells assessed as change in serum BUN level at 20 to 50 mg/kg, iv administered every two days for 21 days; assay type: organism-based; conditions: in vivo, 504 h, dose 20-50 mg/kg, time 21 day
4T1 [8] = assay: Antitumor activity against mouse 4T1 cells implanted in female BALB/C mouse assessed as inhibition of tumor weight at 50 mg/kg, iv administered every two days for 21 days relative to control; assay type: functional, organism-based; conditions: time 21.0 day
[9] = Toxicity in female BALB/C mouse implanted with mouse 4T1 cells assessed as lung damage at 20 to 50 mg/kg, po administered every two days for 21 days by H and E staining based analysis; assay type: organism-based; conditions: in vivo, 504 h, dose 20-50 mg/kg, time 21 day
MCF7 = assay: Antiproliferative activity against human MCF7 cells assessed as reduction in cell viability incubated for 96 hrs by MTT assay; conditions: MCF7, 96 h
MDA-MB-231 [10] = assay: Induction of apoptosis in human MDA-MB-231 cells assessed as late apoptotic cells at 10 uM incubated for 48 hrs by Annexin V-FITC/PI staining based flow cytometric analysis (reference value: 1.06%); assay type: functional
MDA-MB-231 [11] = assay: Cell cycle arrest in human MDA-MB-231 cells assessed as G2 phase cells at 10 uM incubated for 48 hrs by PI staining based flow cytometric analysis (reference value: 7.3%); assay type: functional
[12] = Toxicity in female BALB/C mouse implanted with mouse 4T1 cells assessed as change in serum CREA level at 20 to 50 mg/kg, po administered every two days for 21 days; assay type: organism-based; conditions: in vivo, 504 h, dose 20-50 mg/kg, time 21 day
MDA-MB-231 [13] = assay: Induction of autophagy in human MDA-MB-231 cells assessed as decrease in P62 expression level incubated for 48 hrs by Western blot analysis; assay type: functional, cell-based; conditions: dose 5-20 µM
[14] = Toxicity in female BALB/C mouse implanted with mouse 4T1 cells assessed as effect on lymphocytes at 20 to 50 mg/kg, po administered every two days for 21 days by routine blood analysis; assay type: organism-based; conditions: in vivo, 504 h, dose 20-50 mg/kg, time 21 day
[15] = Toxicity in female BALB/C mouse implanted with mouse 4T1 cells assessed as effect on neutrophils at 20 to 50 mg/kg, po administered every two days for 21 days by routine blood analysis; assay type: organism-based; conditions: in vivo, 504 h, dose 20-50 mg/kg, time 21 day
MDA-MB-231 [16] = assay: Induction of autophagy in human MDA-MB-231 cells assessed as appearance of ring shaped aggregates at 5 to 20 uM incubated for 48 hrs by DAPI staining based immunofluorescence analysis; assay type: functional, cell-based; conditions: dose 5-20 µM
[17] = Toxicity in female BALB/C mouse implanted with mouse 4T1 cells assessed as effect on body weight at 20 to 50 mg/kg, iv administered every two days for 21 days; assay type: organism-based; conditions: in vivo, 504 h, dose 20-50 mg/kg, time 21 day
[18] = Toxicity in female BALB/C mouse implanted with mouse 4T1 cells assessed as effect on monocytes at 20 to 50 mg/kg, po administered every two days for 21 days by routine blood analysis; assay type: organism-based; conditions: in vivo, 504 h, dose 20-50 mg/kg, time 21 day
[19] = Toxicity in female BALB/C mouse implanted with mouse 4T1 cells assessed as change in serum CK level at 20 to 50 mg/kg, iv administered every two days for 21 days; assay type: organism-based; conditions: in vivo, 504 h, dose 20-50 mg/kg, time 21 day
MDA-MB-231 [20] = assay: Antimigratory activity in human MDA-MB-231 cells assessed as reduction in migration ability incubated for 24 hrs by wound healing assay; assay type: functional, cell-based; conditions: dose 2.5-10 µM
MDA-MB-231 [21] = assay: Cell cycle arrest in human MDA-MB-231 cells assessed as G1 phase cells at 20 uM incubated for 48 hrs by PI staining based flow cytometric analysis (reference value: 56.7%); assay type: functional
[22] = Toxicity in female BALB/C mouse implanted with mouse 4T1 cells assessed as change in serum ALT level at 20 to 50 mg/kg, po administered every two days for 21 days; assay type: organism-based; conditions: in vivo, 504 h, dose 20-50 mg/kg, time 21 day
4T1 [23] = assay: Antitumor activity against mouse 4T1 cells implanted in female BALB/C mouse assessed as inhibition of tumor weight at 20 mg/kg, iv administered every two days for 21 days relative to control; assay type: functional, organism-based; conditions: time 21.0 day
[24] = Toxicity in female BALB/C mouse implanted with mouse 4T1 cells assessed as change in serum LDH level at 20 to 50 mg/kg, iv administered every two days for 21 days; assay type: organism-based; conditions: in vivo, 504 h, dose 20-50 mg/kg, time 21 day
[25] = Toxicity in female BALB/C mouse implanted with mouse 4T1 cells assessed as effect on lymphocytes at 20 to 50 mg/kg, iv administered every two days for 21 days by routine blood analysis; assay type: organism-based; conditions: in vivo, 504 h, dose 20-50 mg/kg, time 21 day
MDA-MB-231 [26] = assay: Induction of apoptosis in human MDA-MB-231 cells assessed as late apoptotic cells at 2.5 uM incubated for 48 hrs by Annexin V-FITC/PI staining based flow cytometric analysis (reference value: 1.06%); assay type: functional
[27] = Cytotoxicity against human L02 cells assessed as reduction in cell viability incubated for 96 hrs by MTT assay; assay type: toxicity, cell-based
[28] = Toxicity in female BALB/C mouse implanted with mouse 4T1 cells assessed as spleen damage at 20 to 50 mg/kg, iv administered every two days for 21 days by H and E staining based analysis; assay type: organism-based; conditions: in vivo, 504 h, dose 20-50 mg/kg, time 21 day
MDA-MB-231 [29] = assay: Cell cycle arrest in human MDA-MB-231 cells assessed as G2 phase cells at 5 uM incubated for 48 hrs by PI staining based flow cytometric analysis (reference value: 7.3%); assay type: functional
MDA-MB-231 [30] = assay: Cell cycle arrest in human MDA-MB-231 cells assessed as G1 phase cells at 5 uM incubated for 48 hrs by PI staining based flow cytometric analysis (reference value: 76.7%); assay type: functional
MDA-MB-231 [31] = assay: Induction of apoptosis in human MDA-MB-231 cells assessed as viable cells at 10 uM incubated for 48 hrs by Annexin V-FITC/PI staining based flow cytometric analysis (reference value: 95.10%); assay type: functional; conditions: read-out: Activity
MDA-MB-231 [32] = assay: Induction of apoptosis in human MDA-MB-231 cells assessed as necrotic cells at 5 uM incubated for 48 hrs by Annexin V-FITC/PI staining based flow cytometric analysis (reference value: 1.63%); assay type: functional
MDA-MB-231 [33] = assay: Induction of autophagy in human MDA-MB-231 cells assessed as increase in beclin-1 expression level incubated for 48 hrs by Western blot analysis; assay type: functional, cell-based; conditions: dose 5-20 µM
MDA-MB-231 [34] = assay: Cell cycle arrest in human MDA-MB-231 cells assessed as G1 phase cells at 20 uM incubated for 24 hrs by PI staining based flow cytometric analysis (reference value: 56.7%); assay type: functional

CCC(=O)NC(n1cnc2c(Nc3cc(OC)c(OC)c(OC)c3)nc(N)nc21)C(Cl)(Cl)Cl (stereo not given)
Activity (MDA-MB-231 [1]): 1.57%
Activity [2]: Non-Toxic
Activity (MDA-MB-231 [3]): 1.14%
Activity (MDA-MB-231 [4]): 1.87%
Activity (MDA-MB-231 [5]): Active
Activity [6]: Non-Toxic
Activity [7]: Non-Toxic
Activity (4T1 [8]): inactive
Activity [9]: Non-Toxic
IC50 (MCF7): 3.27 µM
Activity (MDA-MB-231 [10]): 2.04%
Activity (MDA-MB-231 [11]): 10.6%
Activity [12]: Non-Toxic
Activity (MDA-MB-231 [13]): Dose-Dependent Effect
Activity [14]: Non-Toxic
Activity [15]: Non-Toxic
Activity (MDA-MB-231 [16]): Active
Activity [17]: Non-Toxic
Activity [18]: Non-Toxic
Activity [19]: Non-Toxic
Activity (MDA-MB-231 [20]): Dose-Dependent Effect
Activity (MDA-MB-231 [21]): 41%
Activity [22]: Non-Toxic
Activity (4T1 [23]): inactive
Activity [24]: Non-Toxic
Activity [25]: Non-Toxic
Activity (MDA-MB-231 [26]): 1.4%
IC50 at 96 h [27]: 14.7 µM
Activity [28]: Non-Toxic
Activity (MDA-MB-231 [29]): 8.6%
Activity (MDA-MB-231 [30]): 62.8%
viability at 10 µM (MDA-MB-231 [31]): 92.3%
Activity (MDA-MB-231 [32]): 0.96%
Activity (MDA-MB-231 [33]): Dose-Dependent Effect
Activity (MDA-MB-231 [34]): 32.3%
